# According to patent US5929063A, “Mercapto and seleno derivatives as inhibitors of nitric oxide synthase” (priority 1995, dated 1999):
# pEC50: −log10 of the molar value. “Also recorded” adds a separate entry of the source. Like-named read-outs stand apart in the source and are kept apart here.
# Key:
# [1] = test system: J774.2 macrophages; assay: Nitrite production in immunostimulated J774.2 macrophages (E.coli LPS + murine gamma-interferon, 24 h); format: cell-based, mouse; conditions: for activity at 1 µM / activity at 3.16 µM / activity at 10 µM / activity at 31.6 µM / activity at 100 µM / activity at 1000 µM / pEC50: Mus musculus; for activity at 1 µM / activity at 3.16 µM / activity at 10 µM / activity at 31.6 µM / activity at 100 µM / activity at 1000 µM: J774.2, 24 h, read-out: NITRITE (% OF CONTROL); for activity at 1000 µM: inhibitor concentration -3.000 log M (Table 3)
# Procedure: This example illustrates the effect of selected mercapto and seleno derivatives on nitrite production in J774.2 immunostimulated macrophages. The J774.2 mouse macrophage cell line was obtained from the ATCC and was cultured in DMEM with 4×10^-3 M L-glutamine and 10% fetal calf serum. Cells were cultured in 96-well plates with 200 μl culture medium until they reached 60-80% confluence. To induce INOS, fresh culture medium containing E.coli LPS (10 μg/ml) and murine gamma-interferon (IFN)(50 U/ml) was added. Nitrite accumulation in the cell culture medium in the absence or presence of various inhibitors was measured after 24 hours. Nitrite production, an indicator of NO synthesis, was measured in the supernatant of J774.2 macrophages by the Greiss reaction as described in Example 1 above.
# This Example illustrates the effect of selected seleno derivatives on endotoxin-induced nitrite formation in J774.2 macrophages. The mouse macrophage cell line J774.2 obtained from the ATCC was cultured in DMEM with 4×10^-3 M L-glutamine and 10% fetal calf serum. Cells were cultured in 96-well plates with 200 μl culture medium until they reached 60-80% confluence. To induce iNOS, fresh culture medium containing E.coli LPS (10 μg/ml) and murine gamma-interferon (IFN)(50 U/ml) were added. Nitrite accumulation in the cell culture medium in the absence or presence of various inhibitors was measured after 24 hours. There was no detectable nitrite production by the J774.2 macrophages in the absence of immunostimulation. However, in the presence of IFN and LPS, nitrite concentration of the medium increased to 17±2 μM in the absence of inhibitor.
# [2] = test system: J774 macrophages; assay: Nitrite production by immunostimulated J774 macrophages (endotoxin 24 h, Griess); format: cell-based, mouse; conditions: for pEC50: Mus musculus, J774, endotoxin 10 μg/ml, 24 h (Table 1), read-out: EC50 for the inhibition of nitrite production by stimulated J774 macrophages
# Procedure: (§1) This example illustrates the effect of selected mercapto derivatives on endotoxin-induced nitrite formation in J774.2 macrophages and on IL-1 gamma-interferon induced nitrite formation in cultured rat arctic smooth muscle cells. J774 macrophage cell lines were obtained from the American Type Culture Collection (ATCC) and were grown using standard methods in Dulbecco's Modified Eagle Medium (DMEM) supplemented with 10% fetal bovine serum, glutamine, penicillin (10,000 U/l) and streptomycin (10,000 U/l). Rat aortic smooth muscle cells (RASM) from Wistar rats were isolated by enzymatic dissociation using standard methods. The cells were positively identified as smooth muscle by indirect immunofluorescent staining for a-actin, using mouse anti-α-actin antibody and anti-mouse IgG fluorescein isothiocyanate (FITC) conjugate. RASM cells were grown in T-75 tissue culture flasks in 50% F12 nutrient medium and 50% Dulbecco's Modified Eagle Medium supplemented with 10% fetal bovine serum, glutamine, penicillin (10,000 U/l) and streptomycin (10,000 U/l). Cells were grown in 96-well plates for measure of nitrite production and cell viability. J774 macrophages were treated with endotoxin (10 μg/ml) for 24 hours; smooth muscle cells were treated with IL-1 (100 U/ml) and gamma-interferon (50 U/ml) for 48 hours.
# Concentration of nitrite, the degradation product of NO in the culture medium, was determined by mixing equal volumes of medium with the Griess reagent (1% sulfanilamide/0.1% naphthylethylenediamine dihydrochloride/2.5% H3 PO4). The mixture was incubated for 10 minutes at room temperature to form the chromophore, then optical densities (OD) were determined at 550 nm (OD550). NaNO2 was used as the standard. Spectrophotometric measurements were performed in a dual-wavelength spectrophotometer.
# [3] = biological target: T1, ecNOS (Bos taurus, UniProt P29473); assay: ecNOS activity from intimal scrapings of fresh bovine aortae (conversion of [3H]-L-arginine to [3H]-L-citrulline); format: biochemical
# T1 construct: the intimal surface of fresh bovine aortae was scraped and homogenized; from tissue; host or cells: homogenate of intimal scrapings of fresh bovine aortae
# Procedure: The intimal surface of fresh bovine aortae was scraped in the presence of homogenation buffer composed of 50 mM Tris-HCl, 0.1 mM ethylenediamine tetraacetic acid (EDTA) and 0.1 mM ethyleneglycol bis (beta-aminoethyl ether) (EGTA). Conversion of [^3 H]-L-arginine to [^3 H]-L-citrulline was measured in the homogenates as follows: cell homogenate (50 μl) was incubated in the presence of [^3 H]-L-arginine (10 μM, 5 kBq/tube), NADPH (2 mM), calmodulin (30 nM), tetrahydrobiopterin (5 μM) and calcium (2 mM) for 20 minutes at 37° C. in N-2-hydroxethyl piperazine-N-2-ethane sulfonic acid (HEPES) buffer (pH 7.5). Reactions were stopped by dilution with 1 ml of ice cold HEPES buffer (pH 5.5) containing EGTA (2 mM) and EDTA (2 mM). Reaction mixtures were applied to Dowex 50W (Na^+ form) columns and the eluted [^3 H]-L-citrulline activity was measured by scintillation counting. bNOS activity was measured using similar methods in homogenates of whole rat brains.
# For a preparation rich in ecNOS, the intimal surface of fresh bovine aortae was scraped and homogenized. The homogenization buffer was composed of 50 mM tris-HCL, 0.1 mM EDTA, 0.1 mM EGTA and 1 mM phenylmethylsulfonyl chloride (pH 7.4). Cell suspensions were homogenized in the homogenization buffer on ice using a Tissue Tearor 985-370 homogenizer (BioSpec Products, Racine, Wis.). Conversion of [^3 H]-L-arginine to [^3 H]-L-citrulline was measured in the homogenates as described in Example 3 above.
# [4] = biological target: T2, bNOS (Rattus norvegicus, UniProt P29476); assay: bNOS activity in homogenates of whole rat brains; format: biochemical
# T2 construct: bNOS activity was measured using similar methods in homogenates of whole rat brains; from tissue; host or cells: homogenate of whole rat brains
# T2 sequence (P29476 whole entry): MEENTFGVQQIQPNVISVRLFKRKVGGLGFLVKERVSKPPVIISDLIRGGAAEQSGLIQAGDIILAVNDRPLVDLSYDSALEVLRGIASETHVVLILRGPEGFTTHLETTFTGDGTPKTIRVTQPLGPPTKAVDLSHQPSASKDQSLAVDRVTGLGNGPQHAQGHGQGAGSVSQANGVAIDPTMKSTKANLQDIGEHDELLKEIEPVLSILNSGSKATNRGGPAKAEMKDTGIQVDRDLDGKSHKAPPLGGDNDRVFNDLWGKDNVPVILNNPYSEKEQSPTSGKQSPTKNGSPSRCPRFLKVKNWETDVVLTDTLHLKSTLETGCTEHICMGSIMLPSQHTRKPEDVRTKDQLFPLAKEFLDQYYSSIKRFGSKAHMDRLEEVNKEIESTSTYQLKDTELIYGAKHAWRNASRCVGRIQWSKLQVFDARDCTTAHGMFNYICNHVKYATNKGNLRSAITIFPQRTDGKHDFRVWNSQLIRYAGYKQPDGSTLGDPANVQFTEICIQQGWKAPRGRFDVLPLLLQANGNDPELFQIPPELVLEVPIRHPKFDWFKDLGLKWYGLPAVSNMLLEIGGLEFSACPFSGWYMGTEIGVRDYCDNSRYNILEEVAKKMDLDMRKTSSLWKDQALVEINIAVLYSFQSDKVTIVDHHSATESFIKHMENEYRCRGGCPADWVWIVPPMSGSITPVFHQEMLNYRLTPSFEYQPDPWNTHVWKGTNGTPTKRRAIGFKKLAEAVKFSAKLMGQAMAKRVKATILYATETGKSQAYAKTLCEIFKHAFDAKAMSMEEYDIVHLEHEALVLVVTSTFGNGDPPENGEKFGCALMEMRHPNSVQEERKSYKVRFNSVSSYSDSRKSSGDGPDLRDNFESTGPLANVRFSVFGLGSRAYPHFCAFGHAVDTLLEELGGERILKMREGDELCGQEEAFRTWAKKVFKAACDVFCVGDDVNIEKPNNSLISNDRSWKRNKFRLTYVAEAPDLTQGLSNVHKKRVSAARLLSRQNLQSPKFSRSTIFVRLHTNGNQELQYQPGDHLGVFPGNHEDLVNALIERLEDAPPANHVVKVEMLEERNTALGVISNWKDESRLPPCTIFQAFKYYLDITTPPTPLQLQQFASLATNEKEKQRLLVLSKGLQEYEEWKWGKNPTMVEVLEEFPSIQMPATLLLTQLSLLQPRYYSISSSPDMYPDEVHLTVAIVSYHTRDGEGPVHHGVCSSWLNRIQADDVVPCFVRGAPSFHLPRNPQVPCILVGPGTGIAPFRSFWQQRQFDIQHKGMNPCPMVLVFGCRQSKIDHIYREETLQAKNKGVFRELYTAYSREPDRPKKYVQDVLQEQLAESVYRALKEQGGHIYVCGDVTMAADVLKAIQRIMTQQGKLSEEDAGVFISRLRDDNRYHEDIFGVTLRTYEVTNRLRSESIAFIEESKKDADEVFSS
# [5] = biological target: T3, iNOS (Rattus norvegicus, UniProt Q06518); assay: Inhibition of iNOS activity in tissue homogenates (Table 2); format: biochemical; parameters: bNOS in tissue homogenates; from tissue; host or cells: tissue homogenate; conditions: for pEC50: iNOS (Table 2)
# [6] = biological target: T3, iNOS; assay: iNOS activity in lung homogenates from rats treated with bacterial endotoxin; format: biochemical; parameters: Lungs were obtained from rats which had been treated with bacterial endotoxin; from tissue; host or cells: lung homogenate from endotoxin-treated rats; conditions: for selectivity for iNOS: iNOS vs ecNOS EC50 values; for inhibition of iNOS activity, in words: lung homogenates, rats treated with endotoxin
# Procedure: This Example illustrates the effect of selected mercapto and seleno derivatives on iNOS activity in lung homogenates prepared from rats treated with endotoxin. […] The homogenization buffer was composed of 50 mM tris-HCL, 0.1 mM EDTA, 0.1 mM EGTA and 1 mM phenylmethylsulfonyl chloride (pH 7.4). Cell suspensions were homogenized in the homogenization buffer on ice using a Tissue Tearor 985-370 homogenizer (BioSpec Products, Racine, Wis.).
# [7] = test system: J774 macrophages; assay: Mitochondrial respiration (MTT reduction), cell viability of immunostimulated J774 macrophages; format: cell-based, mouse
# Procedure: as §1
# Mitochondrial respiration, an indicator of cell viability, was assessed by the mitochondrial-dependent reduction of MTT [3-(4,5-dimethylthiazol-2-yl)-2,5-diphenyltetrazolium bromide] to formazan. Cells in 96-well plates were incubated (37° C.) with MTT (0.2 mg/ml for 60 minutes). Culture medium was removed by aspiration and the cells solubilized in dimethylsulfoxide (DMSO) (100 μl). The extent of reduction of MTT to formazan within cells was quantitated by measurement of OD550 using a microplate reader. The calibration curve for the reduction of MTT to formazan was prepared in DMSO. Formazan production by cells was expressed as a percentage of the values obtained from untreated cells.
# [8] = ecNOS (Table 2), read-out: EC50 for inhibition of ecNOS activity in tissue homogenates
# [9] = inhibitor concentration -4.000 log M (Table 3)
# [10] = inhibitor concentration -5.000 log M (Table 3)
# [11] = inhibitor concentration -6.000 log M (Table 3)
# [12] = inhibitor concentration -3.000 log M
# [13] = inhibitor concentration -4.000 log M
# [14] = inhibitor concentration -5.000 log M
# [15] = inhibitor concentration -6.000 log M
# [16] = inhibitor concentration -7.000 log M
structure (smiles),measurement,setting,value
"NC1=NCC[Se]1 [ASZ, 2-aminoselenazoline]","inhibition of nitrite production, in words",[1]; IFN and LPS,dose-dependently inhibited nitrite production
same,activity at 1 µM,[1],100%
same,activity at 3.16 µM,[1],96%
same,activity at 10 µM,[1],60%
same,activity at 31.6 µM,[1],37%
same,activity at 100 µM,[1],14%
"N=C(N)NCCSSCCNC(=N)N [GED, guanidinoethyldisulfide]",pEC50,[2],6.00
same,"inhibition of ecNOS activity, in words",[3],inhibited ecNOS activity less strongly than the L-NMA
same,pEC50,[3]; [8],3.20
same,pEC50,[4],3.74
same,"inhibition of nitrite production, in words",[1]; IFN and LPS,dose-dependent inhibition of nitrite production
same,potency relative to reference compound L-NMA,[1]; IFN and LPS,higher than the reference compound L-NMA
same,activity at 1000 µM,[1],0%
same,activity at 100 µM,[1]; [9],0%
same,activity at 10 µM,[1]; [10],7%
same,activity at 1 µM,[1]; [11],36%
same,pEC50,"[1]; J774.2, IFN and LPS, Example 9, read-out: EC50, inhibition of nitrite production",6.52
same,pEC50,[5],3.70
same,pEC50,"[6]; comparing Tables 4 and 5, read-out: EC50 on iNOS",3.70
same,selectivity for iNOS,[6],relative selectivity of SEG and GED for iNOS
same,iNOS ACTIVITY (%),[6]; [12],22.000%
same,iNOS ACTIVITY (%),[6]; [13],57.000%
same,iNOS ACTIVITY (%),[6]; [14],100.000%
same,iNOS ACTIVITY (%),[6]; [15],100.000%
same,iNOS ACTIVITY (%),[6]; [16],100.000%
same,"inhibition of iNOS activity, in words",[6],somewhat similar in their inhibitory effect on INOS activity
"N=C(NCCC[C@H](N)C(=O)O)N[N+](=O)[O-] [L-NA, N^G -Nitro-L-arginine, reference compound]",pEC50,[2],~3.00
same,pEC50,[5],3.52
"N=C(N)NCCS [MEG, mercaptoethylguanidine]",pEC50,[2],4.89
same,cellular viability,[7]; 1 mM,a slight reduction in viability was observed
same,cellular viability,[7]; effective doses 1-100 μM,did not decrease cellular viability
same,pEC50,[3]; [8],3.96
same,pEC50,[4],4.22
same,pEC50,[5],4.94
"N=C(N)NCCCS [MPG, mercaptopropylguanidine]",pEC50,[2],4.82
same,cellular viability,[7]; 1 mM,a slight reduction in viability was observed
same,cellular viability,[7]; effective doses 1-100 μM,did not decrease cellular viability
same,pEC50,[3]; [8],5.40
same,pEC50,[4],4.10
same,pEC50,[5],5.15
CCSCCNC(=N)N [S-ethyl-MEG],pEC50,[2],3.48
same,"inhibition of nitrite production/accumulation, in words",[2]; immunostimulated J774 macrophages,inhibitors of nitrite accumulation
same,"inhibition of ecNOS activity, in words",[3],less potent on ecNOS
same,pEC50,[3]; [8],3.07
same,pEC50,[4],3.34
same,"inhibition of iNOS activity, in words",[5],relative potent inhibitors of iNOS activity
same,pEC50,[5],4.52
"CSCCNC(=N)N [S-methyl-MEG, S-methyl-mercaptoethylguanidine]",pEC50,[2],4.10
same,pEC50,[3]; [8],4.37
same,pEC50,[4],5.10
same,pEC50,[5],5.85
"N=C(N)NCC[SeH] [SEG, selenoethylguanidine]",pEC50,[3],3.22
same,"inhibition of ecNOS activity, in words",[3],inhibited ecNOS activity less strongly than the L-NMA
same,"inhibition of nitrite production, in words",[1]; IFN and LPS,dose-dependent inhibition of nitrite production; also recorded: dose-dependently inhibited nitrite production
same,potency relative to reference compound L-NMA,[1]; IFN and LPS,higher than the reference compound L-NMA
same,activity at 1000 µM,[1],0%
same,activity at 100 µM,[1]; [9],7%
same,activity at 100 µM,[1]; inhibitor concentration -4 log M (Table 6),14%
same,activity at 31.6 µM,[1]; inhibitor concentration -4.5 log M (Table 6),28%
same,activity at 10 µM,[1]; [10],50%
same,activity at 10 µM,[1]; inhibitor concentration -5 log M (Table 6),50%
same,activity at 3.16 µM,[1]; inhibitor concentration -5.5 log M (Table 6),94%
same,activity at 1 µM,[1]; [11],90%
same,activity at 1 µM,[1]; inhibitor concentration -6 log M (Table 6),100%
same,pEC50,"[1]; J774.2, read-out: EC50, inhibition of nitrite production",5.00
same,pEC50,[6],5.00
same,selectivity for iNOS,[6],relative selectivity of SEG and GED for iNOS
same,iNOS ACTIVITY (%),[6]; [12],0.0000%
same,iNOS ACTIVITY (%),[6]; [13],15.000%
same,iNOS ACTIVITY (%),[6]; [14],56.000%
same,iNOS ACTIVITY (%),[6]; [15],86.000%
same,iNOS ACTIVITY (%),[6]; [16],100.000%
same,"inhibition of iNOS activity, in words",[6],"inhibits iNOS activity, more strongly"
"N=C(N)NCCC[SeH] [SPG, selenopropylguanidine]","inhibition of nitrite production, in words",[1]; IFN and LPS,dose-dependently inhibited nitrite production
same,activity at 1 µM,[1],100%
same,activity at 3.16 µM,[1],73%
same,activity at 10 µM,[1],11%
same,activity at 31.6 µM,[1],4%
same,activity at 100 µM,[1],0%
